Measured values published in US20240261417A1, “SOS1 DEGRADING AGENT AND PREPARATION METHOD THEREFOR AND APPLICATION THEREOF” (SHANGHAI LEADINGTAC PHARMACEUTICAL CO. LTD., priority 2021, published 2024).

Molecular target: T1, SOS1 protein (Homo sapiens, UniProt Q07889)
T1 sequence (Q07889 1-1333): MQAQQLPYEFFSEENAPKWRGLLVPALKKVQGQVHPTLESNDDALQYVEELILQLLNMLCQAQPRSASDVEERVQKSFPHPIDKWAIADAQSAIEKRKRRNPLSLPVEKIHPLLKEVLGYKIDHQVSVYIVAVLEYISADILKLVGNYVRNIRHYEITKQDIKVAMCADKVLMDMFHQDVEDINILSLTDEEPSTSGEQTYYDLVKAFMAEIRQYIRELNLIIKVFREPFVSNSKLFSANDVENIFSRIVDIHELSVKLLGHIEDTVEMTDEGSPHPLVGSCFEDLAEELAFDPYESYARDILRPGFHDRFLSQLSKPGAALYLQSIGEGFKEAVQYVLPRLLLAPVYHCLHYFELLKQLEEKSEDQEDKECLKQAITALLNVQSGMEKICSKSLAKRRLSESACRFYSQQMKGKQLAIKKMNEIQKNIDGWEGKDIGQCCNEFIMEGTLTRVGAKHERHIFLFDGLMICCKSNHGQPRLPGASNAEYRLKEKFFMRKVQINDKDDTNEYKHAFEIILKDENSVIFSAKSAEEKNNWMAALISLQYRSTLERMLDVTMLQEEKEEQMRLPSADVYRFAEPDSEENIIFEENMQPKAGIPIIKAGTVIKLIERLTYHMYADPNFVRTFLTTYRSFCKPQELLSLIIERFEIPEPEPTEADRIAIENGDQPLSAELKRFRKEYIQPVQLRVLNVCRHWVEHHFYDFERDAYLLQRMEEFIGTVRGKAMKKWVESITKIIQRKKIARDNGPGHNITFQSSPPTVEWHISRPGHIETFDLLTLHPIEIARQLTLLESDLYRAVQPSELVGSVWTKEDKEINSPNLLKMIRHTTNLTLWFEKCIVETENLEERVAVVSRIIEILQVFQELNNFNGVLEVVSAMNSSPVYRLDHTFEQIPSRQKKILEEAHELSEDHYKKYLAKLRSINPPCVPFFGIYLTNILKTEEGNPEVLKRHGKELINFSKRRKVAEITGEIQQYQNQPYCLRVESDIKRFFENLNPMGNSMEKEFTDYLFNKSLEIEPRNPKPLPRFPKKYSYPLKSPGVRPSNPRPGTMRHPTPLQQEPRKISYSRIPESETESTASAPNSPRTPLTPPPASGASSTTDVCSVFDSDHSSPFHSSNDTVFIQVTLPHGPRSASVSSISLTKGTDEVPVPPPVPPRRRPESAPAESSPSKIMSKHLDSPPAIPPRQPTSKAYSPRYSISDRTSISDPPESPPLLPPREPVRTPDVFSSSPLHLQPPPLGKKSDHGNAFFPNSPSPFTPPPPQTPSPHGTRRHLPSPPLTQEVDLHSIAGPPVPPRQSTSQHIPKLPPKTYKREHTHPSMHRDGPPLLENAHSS
Assay: SOS1 degradation assay (Western blot), NCI-H358 cells
Assay type: cell-based
Design: The degradation of SOS1 by the compounds was investigated on KRAS G12C mutant human non-small cell lung cancer cells NCI-H358; host or cells: NCI-H358 (human cancer cell lines)
Details: SOS1 degradation, NCI-H358 cells, 24 h, Western blot; for DC50: read-out: NCI-H358 (G12C) DC50; for Dmax: read-out: NCI-H358 (G12C) Dmax
Method: The specific procedures were as follows:
0.95 mL of cells were seeded into each well of a 24-well cell culture plate to achieve a cell density of 5×10^5 cells/well; the cell plate was incubated in an incubator at 37° C. with 5% CO2 overnight. Then 50 μL of the compound solution after dilution was added to each of the wells with the corresponding cells, so that the final concentration of the compound was in a range of 0.03-3000 nM. […] After dosing, the cell plate was incubated in an incubator at 37° C. with 5% CO2 for 24 h. […] After the plate was left to stand on ice for 30 min, the protein lysate in each well was transferred to a 1.5 mL centrifuge tube and centrifuged at 15000 g for 20 min at 4° C. The cell lysate supernatant after centrifugation was cryopreserved at −80° C. for testing and was used for determining the degradation level of the SOS1 protein by a WB method. The concentration of total protein in the cell lysate supernatant was determined using the BCA Protein Quantification Kit (Tiangen, PA115-02).
The concentration of total protein in the cell lysate was determined by BCA. The total protein was adjusted to 0.5 μg/μL with PBS and 5× SDS-PAGE protein loading buffer (Beyotime, P0015L), incubated in a water bath at 100° C. for 15 min, incubated in an ice bath on ice for 5 min, centrifuged at 14000 g for 1 min at 4° C., and mixed well as a loading sample for WB. Protein electrophoresis was performed on a precast gel (KeyGEN, KGMGO10W15) with a loading volume of 10 μL (total protein: 5 μg) using a Tris-MOPS-SDS running solution (Adamas, P1598253) at a constant voltage of 120 V for 55 min. After the electrophoresis, the protein on the gel strip was transferred to a PVDF membrane at a constant current of 250 mA for 65 min. After the membrane transfer, the membrane was incubated in 1× QuickBlock blocking buffer (Beyotime, P0235) for 30 min at room temperature. […] The protein map was subjected to gray value analysis by the chemiluminescence imaging system from Clinx. […] Then the degradation rate was calculated by comparing the gray correction value with the gray correction value of the control group. Then nonlinear curve fitting was performed by GraphPad Prism 8 in the logarithmic concentration-inhibition rate to obtain the DC50 and Dmax values of the compounds.

DC50 [µM] | Dmax [%] | SMILES | NCI-H358 (G12C) Dmax
0.5 to 1 | 80 to 100 | Cc1nc(N[C@H](C)c2cc(N)cc(C(F)(F)F)c2)c2cc(C3CCN(CC(=O)NCCC4CCC5(CC4)CCN(C(=O)c4ccc(Cl)c(N6CCC(=O)NC6=O)c4)CC5)CC3)ccc2n1 [Example 77, (R)-2-(4-(4-((1-(3-amino-5-(trifluoromethyl)phenyl)ethyl)amino)-2-methylquinazolin-6-yl)piperidin-1-yl)-N-(2-(3-(4-chloro-3-(2,4-dioxotetrahydropyrimidin-1(2H)-yl)benzoyl)-3-azaspiro[5.5]undecan-9-yl)ethyl)acetamide] | 
 |  | [2H]C([2H])(OCC1CCN(C(=O)c2ccc(Cl)c(N3CCC(=O)NC3=O)c2)CC1)C1CCN(C(=O)[C@H]2CC[C@H](c3cc4c(N[C@H](C)c5cc(N)cc(C(F)(F)F)c5)nc(C)nc4cc3OC)CC2)CC1 [Example 76, 1-(5-(4-(((1-((1R,4R)-4-(4-(((R)-1-(3-amino-5-(trifluoromethyl)phenyl)ethyl)amino)-7-methoxy-2-methylquinazolin-6-yl)cyclohexane-1-carbonyl)piperidin-4-yl)methoxy-d2)methyl)piperidine-1-carbonyl)-2-chlorophenyl)dihydropyrimidine-2,4(1H,3H)-dione] | B (when 50≤Dmax (%)<80, the level was B)
1 to 10 | < 30 | COc1cc2nc(C)nc(N[C@H](C)c3cc(N)cc(C(F)(F)F)c3)c2cc1[C@H]1CC[C@H](C(=O)N(C)CC2CCC3(CC2)CCN(C(=O)c2ccc(Cl)c(N4CCC(=O)NC4=O)c2)CC3)CC1 [Example 9, (1R,4R)-4-(4-(((R)-1-(3-amino-5-(trifluoromethyl)phenyl)ethyl)amino)-7-methoxy-2-methylquinazolin-6-yl)-N-((3-(4-chloro-3-(2,4-dioxotetrahydropyrimidin-1(2H)-yl)benzoyl)-3-azaspiro[5.5]undecane-9-yl)methyl)-N-methylcyclohexane-1-carboxamide] | 
0.1 to 0.5 | 50 to 80 | Cc1nc(N[C@H](C)c2cc(N)cc(C(F)(F)F)c2)c2cc([C@H]3CC[C@H](C(=O)N4CCN(CC5CCC6(CC5)CCN(C(=O)c5ccc(Cl)c(N7CCC(=O)NC7=O)c5)CC6)CC4)CC3)ncc2n1 [Example 78, 1-(5-(9-((4-((1R,4R)-4-(4-(((R)-1-(3-amino-5-(trifluoromethyl)phenyl)ethyl)amino)-2-methylpyrido[3,4-d]pyrimidin-6-yl)cyclohexane-1-carbonyl)piperazin-1-yl)methyl)-3-azaspiro[5.5]undecane-3-carbonyl)-2-chlorophenyl)dihydropyrimidine-2,4(1H,3H)-dione] | 
< 0.05 | 80 to 100 | CNCc1ccccc1-c1csc([C@@H](C)Nc2nc(C)nc3cc(OC)c([C@H]4CC[C@H](C(=O)N5CCN(CC6CCC7(CC6)CCN(C(=O)c6ccc(F)c(N8CCC(=O)NC8=O)c6)CC7)CC5)CC4)cc23)c1 [Example 74, 1-(2-fluoro-5-(9-((4-((1R,4R)-4-(7-methoxy-2-methyl-4-(((R)-1-(4-(2-((methylamino)methyl)phenyl)thien-2-yl)ethyl)amino)quinazolin-6-yl)cyclohexane-1-carbonyl)piperazin-1-yl)methyl)-3-azaspiro[5.5]undecane-3-carbonyl)phenyl)dihydropyrimidine-2,4(1H,3H)-dione] | 
1 to 10 | < 30 | COc1cc2nc(C)nc(N[C@H](C)c3cc(N)cc(C(F)(F)F)c3)c2cc1[C@H]1CC[C@H](C(=O)N2CCN(CC3CCN(C(=O)COc4ccc(Cl)c(N5CCC(=O)NC5=O)c4)CC3)CC2)CC1 [Example 37, 1-(5-(2-(4-((4-((1R,4R)-4-(4-(((R)-1-(3-amino-5-(trifluoromethyl)phenyl)ethyl)amino)-7-methoxy-2-methylquinazolin-6-yl)cyclohexane-1-carbonyl)piperazin-1-yl)methyl)piperidin-1-yl)-2-oxoethoxy)-2-chlorophenyl)dihydropyrimidine-2,4(1H,3H)-dione] | 
1 to 10 | 30 to 50 | COc1cc2nc(C)nc(N[C@H](C)c3cc(N)cc(C(F)(F)F)c3)c2cc1OC1CCN(CC2CCC3(CC2)CCN(C(=O)c2ccc(Cl)c(N4CCC(=O)NC4=O)c2)CC3)CC1 [Example 6, (R)-1-(5-(9-((4-((4-((1-(3-amino-5-(trifluoromethyl)phenyl)ethyl)amino)-7-methoxy-2-methylquinazolin-6-yl)oxy)piperidin-1-yl)methyl)-3-azaspiro[5.5]undecane-3-carbonyl)-2-chlorophenyl)dihydropyrimidine-2,4(1H,3H)-dione] | 
1 to 10 | 30 to 50 | Cc1nc(N[C@H](C)c2cc(N)cc(C(F)(F)F)c2)c2cc(-c3ccn(CCCN(C)CC4CCC5(CC4)CCN(C(=O)c4ccc(Cl)c(N6CCC(=O)NC6=O)c4)CC5)c(=O)c3)c(C)cc2n1 [Example 42, (R)-1-(5-(9-(((3-(4-(4-((1-(3-amino-5-(trifluoromethyl)phenyl)ethyl)amino)-2,7-dimethylquinazolin-6-yl)-2-oxopyridin-1(2H)-yl)propyl)(methyl)amino)methyl)-3-azaspiro[5.5]undecane-3-carbonyl)-2-chlorophenyl)dihydropyrimidine-2,4(1H,3H)-dione] | 
1 to 10 | < 30 | COc1cc2nc(C)nc(N[C@H](C)c3cc(N)cc(C(F)(F)F)c3)c2cc1[C@H]1CC[C@H](C(=O)N2CCC(CCN(C)CC3CCN(C(=O)c4ccc(Cl)c(N5CCC(=O)NC5=O)c4)CC3)CC2)CC1 [Example 25, 1-(5-(4-(((2-(1-((1R,4R)-4-(4-(((R)-1-(3-amino-5-(trifluoromethyl)phenyl)ethyl)amino)-7-methoxy-2-methylquinazolin-6-yl)cyclohexane-1-carbonyl)piperidin-4-yl)ethyl)(methyl)amino)methyl)piperidine-1-carbonyl)-2-chlorophenyl)dihydropyrimidine-2,4(1H,3H)-dione] | 
1 to 10 | 30 to 50 | COc1cc2nc(C)nc(N[C@H](C)c3cc(N)cc(C(F)(F)F)c3)c2cc1[C@H]1CC[C@H](C(=O)N2CCN(CCC3CCN(C(=O)c4ccc(Cl)c(N5CCC(=O)NC5=O)c4)CC3)CC2)CC1 [Example 12, 1-(5-(4-(2-(4-((1R,4R)-4-(4-(((R)-1-(3-amino-5-(trifluoromethyl)phenyl)ethyl)amino)-7-methoxy-2-methylquinazolin-6-yl)cyclohexane-1-carbonyl)piperazin-1-yl)ethyl)piperidine-1-carbonyl)-2-chlorophenyl)dihydropyrimidine-2,4(1H,3H)-dione] | 
